Measurements reported in US20100093603A1, “USE OF ORGANIC COMPOUNDS” (priority 2008, published 2010).

How the values were obtained:
Format in all cases: in vivo, Sprague Dawley rats
[1] = test system: Superoxide production in the hearts; test: Reactive oxygen species detection in the heart by dihydroethidium (DHE) staining; conditions: STZ-diabetic rats; for DHE fluorescence, Mean: 7 days of treatment, frozen heart sections, 10 μM DHE, control 17.65, diabetic no treatment 68.6; for superoxide production / oxidative stress (result in words): DHE staining of heart sections
[2] = test system: intracellular Ang II (iAng II) in cardiac myocytes; test: Measurement of iAng II in cardiac myocytes isolated from STZ-diabetic rat hearts (competitive ELISA); conditions: for iAng II levels in cardiac myocytes: STZ-diabetic rats treated daily for 7 days (insulin 2-5 U BID SC; candesartan 1 mg/kg IP; aliskiren 30 mg/kg oral; benazepril 10 mg/kg oral), mean±SE, diabetic untreated 0.59±0.01, control 0.06±0.01; for iAng II synthesis, blocked or not (result in words): diabetic rats, summary statement
Procedure: (§1) Diabetes is induced by a single injection of streptozotocin (STZ, 65 mg/kg body weight, IP) dissolved in 0.1 M sodium citrate buffered saline (pH 4.5), in adult male Sprague Dawley rats (250-300 g). Control animals receive buffered saline alone. Diabetes is confirmed by sustained blood glucose levels >15 mmol/L, as determined 48 h after STZ injection and on alternate days thereafter. […] After 7 days, animals are weighed and anesthetized using ketamine/xylazine (50/5 mg/kg). Hearts are isolated and weighed before perfusion, the latter using the Langendorff methodology.
Hearts are isolated and perfused with Krebs-Henseleit bicarbonate buffer, followed by digestion with collagenase II (0.1% w/v). Myocytes are separated from non-myocytes by differential centrifugation at 25×g. […] The pellet containing myocytes is processed for Ang II extraction, as described by Singh et al in Am J Physiol Heart Circ Physiol 293:H939-H948, 2007. Cells were lysed in ice-cold 1 M acetic acid, containing a protease inhibitor cocktail (Sigma), by sonication (2 pulses of 5 sec each). The lysate is sedimented at 20,000×g for 10 min and the supernatant is dried in a vacufuge, followed by reconstitution in 1% acetic acid. The samples are applied to a conditioned DSC-18 column (Supelco), washed, and eluted with methanol. The eluted samples are dried and reconstituted in PBS for ELISA. For isolation of Ang II from plasma, an equal volume of 2% acetic acid is added to plasma, followed by filtration through Amicon Ultra-15 filters. The filtrate is applied to DSC-18 columns and Ang II is eluted, as described for the cell lysates. […] Ang II is measured by quantitative, competitive ELISA, using a specific anti-Ang II antibody (Peninsula Labs), as previously described in Am J Physiol Heart Circ Physiol 293:H939-H948, 2007. ELISA is performed on protein-A and anti-Ang II antibody-coated 96-well dishes. Competitive binding of synthetic biotinylated Ang II, in the presence of the extracted peptide, is detected with streptavidin-horseradish peroxidase conjugate. A standard curve, generated from binding of a constant amount of biotinylated Ang II with increasing concentrations of non-biotinylated synthetic Ang II, is used to calculate the concentration of the peptide in the sample. The concentration of Ang II in the cell lysates is expressed as fmoles per milligram of heart wt and in plasma as fmoles per milligram of plasma proteins.
Ang II levels in cardiac myocytes, which are isolated after perfusion of the hearts and enzymatic dispersion, correspond to Ang II present intracellularly. To determine the source of iAng II, i.e., intracellular synthesis or AT1-mediated internalization, one group of diabetic animals is treated with the AT1 antagonist candesartan to prevent receptor-mediated uptake.

cardiac myocytes = test: Cardiac myocyte apoptosis in heart sections (TUNEL assay and cleaved caspase-3 staining); conditions: STZ-diabetic rats; for Caspase-3 staining, Mean / TUNEL assay, Mean: 7 days of treatment, heart sections; for Caspase-3 staining, Mean: control 7, diabetic no treatment 28; for TUNEL assay, Mean: control 8.5, diabetic no treatment 33
[3] = test system: Cardiac interstitial fibrosis; test: Cardiac interstitial fibrosis by Masson's trichrome staining, graded on a scale of 0-4; conditions: for degree of fibrosis (average grade): STZ-diabetic rats after one week of diabetes, scale 0-4, diabetic untreated grade 1.5, control grade 0; for diabetes-induced cardiac fibrosis (result in words): diabetic rats, summary statement
Procedure: as §1
Cardiac interstitial fibrosis is determined by Masson's trichrome staining on 5 μm paraffin-embedded sections. The extent and degree of fibrosis is graded on a scale of 0-4. Grade 0 signifies no apparent collagen fiber proliferation except for small islets of fibrous tissue around the capillaries, as well as an intercellular single layer of collagenous tissue, as in normal myocardium. Focal and minimal fibrosis is graded as 1, mild patchy fibrosis as grade 2, moderate diffuse fibrosis as grade 3 and the most prominent fibrosis, covering major area of the specimen, is classified as 4. A minimum of three sections per heart, with five fields per section, and three animals per experimental group, are analyzed and results presented as an average grade.
After one week of diabetes, the overall staining for fibrosis is enhanced in hearts from diabetic rats (grade 1.5), compared to control animals (grade 0). […] Candesartan and benazepril reduces the degree of fibrosis (grade 0.43 and 0.88, respectively), whereas aliskiren has a more pronounced reduction of fibrosis (grade 0.25) in diabetic rat hearts.

Compound	DHE fluorescence, Mean [1]	iAng II levels in cardiac myocytes [2]	Caspase-3 staining, Mean (cardiac myocytes)	TUNEL assay, Mean (cardiac myocytes)	degree of fibrosis (average grade) [3]	superoxide production / oxidative stress (result in words) [1]	iAng II synthesis, blocked or not (result in words) [2]	diabetes-induced cardiac fibrosis (result in words) [3]	number of apoptotic cells (result in words) (cardiac myocytes; by both TUNEL assay and caspase-3 staining)
CCOc1nc2cccc(C(=O)O)c2n1Cc1ccc(-c2ccccc2-c2nnn[nH]2)cc1 [candesartan]	37.7 Arbitrary units	0.43±0.05 fmole/mg heart wt	18.5 positive cells/mm^2	24 positive cells/mm^2	0.43 grade				
CCOC(=O)[C@H](CCc1ccccc1)N[C@H]1CCc2ccccc2N(CC(=O)O)C1=O [benazepril]	51.4 Arbitrary units	0.55±0.02 fmole/mg heart wt	21 positive cells/mm^2	27 positive cells/mm^2	0.88 grade	reduces oxidative stress	not	partially inhibited	
COCCCOc1cc(C[C@@H](C[C@H](N)[C@@H](O)C[C@H](C(=O)NCC(C)(C)C(N)=O)C(C)C)C(C)C)ccc1OC [aliskiren, 2(S),4(S),5(S),7(S)—N-(3-amino-2,2-dimethyl-3-oxopropyl)-2,7-di(1-methylethyl)-4-hydroxy-5-amino-8-[4-methoxy-3-(3-methoxy-propoxy)phenyl]-octanamide]	22.7 Arbitrary units	0.12±0.02 fmole/mg heart wt	18 positive cells/mm^2	21.3 positive cells/mm^2	0.25 grade	blocks it completely	blocked	complete inhibition	
insulin: type 1 diabetes therapeutic agent, used to normalize blood glucose in STZ-treated rats	26.7 Arbitrary units		14 positive cells/mm^2	20 positive cells/mm^2	0.04 grade	prevented			reduces the number of apoptotic cells, but does not prevent apoptosis completely
